Data on four molecules can be found in PMC11489206, “Transport of perfluoroalkyl substances across human induced pluripotent stem cell-derived intestinal epithelial cells in comparison with primary human intestinal epithelial cells and Caco-2 cells” (Archives of Toxicology, 2024).

Read-outs that look alike come from different tables or passages of the source. Marks after values point to notes of the source that are not given here.

For series [1], the system named is Caco-2 model. As to conditions: cited from earlier work.
The test system of series [2] is EpiIntestinal model. To be noted: apical to basolateral, ref Ayehunie et al. (2005); cited from earlier work.
Series [3] can be described thus: Transport study across Caco-2 cell layers. As to conditions: human, Caco-2. As for the experimental part: (§1) Human colorectal adenocarcinoma cells (Caco-2, HTB-37) were obtained from American Type Culture Collection (ATCC, Manassas, VA). Cells were cultured in a humidified incubator (37°C, 5% CO2) in Dulbecco’s modified Eagle’s medium (DMEM) supplemented with 10% heat-inactivated fetal bovine serum (Gibco, Thermo Fisher Scientific, Waltham, MA), 1% non-essential amino acids (Gibco) and 1% penicillin/streptomycin (Sigma). For experiments, Caco-2 cells below passage number 50 were used within 10 passages. They were harvested at 80% confluence using Trypsin/EDTA (0.25%/0.05%; PAN Biotech, Aidenbach, Germany) and seeded at a density of 4 × 10^5 cells/cm^2 into inserts with a polycarbonate membrane (0.4 µm pore, Corning, New York, NY). After 21 days of differentiation (using 500 µl cell culture medium in the apical and 1500 µl in the basolateral compartment), monolayer integrity was determined by measuring transepithelial electrical resistance (TEER) with a Millicell ERS Volt-Ohm meter (Millipore, Bedford, MA).
(§2) Transport studies were performed in Caco-2 cells, hiPSC-derived IECs and EpiIntestinal microtissues. To that end, Caco-2 cell layers were differentiated for 21 days and hiPSCs were differentiated into IEC layers for 26 days, as described above. EpiIntestinal microtissues were subjected to transport studies 1 day after arrival. […] For all models, PFAS transport was assessed in apical to basolateral, and basolateral to apical direction using HBSS containing a mixture of PFASs containing 1 µM of each PFAS. See Supplementary Data for a detailed description of the method used for the transport studies of the model compounds and PFASs.
(§3) Prior to exposure to the transport study compounds, the cells were washed with transport medium (HBSS; Sigma). […] 100 µL aliquots were collected from the basolateral compartment and replaced with the same volume HBSS at settled time points (0, 15, 30 and 60 min). For basolateral to apical transport in the EpiIntestinal microtissues, 0.2 mL HBSS was added to the apical compartment and 0.5 mL HBSS containing a mixture of PFASs containing 1 µM of each PFAS, was added to the basolateral compartment. 100 µL aliquots were collected from the apical compartment and replaced with the same volume of HBSS at settled time points (0, 15, 30 and 60 min). For apical to basolateral transport across the Caco-2 cell layers and hiPSC-derived IEC layers, 1.2 mL HBSS was added to the basolateral compartment and 0.4 mL HBSS containing either model compounds (10 µM) or a mixture of PFASs containing 1 µM of each PFAS, was added to the apical compartment. 100 µL aliquots were collected from the basolateral compartment and replaced with the same volume of HBSS at settled time points (0, 7.5, 15, 30 and 60 min for the model compounds with both models and the PFASs with the hiPSC-derived IEC layers and 0, 15, 30 and 60 min for PFASs with the Caco-2 cell layers). For basolateral to apical transport, 0.4 mL HBSS was added to the apical compartment and 1.2 mL HBSS containing 10 µM of the model compounds or a mixture of PFASs containing 1 µM of each PFAS, was added to the basolateral compartment. 100 µL aliquots were collected from the apical compartment and replaced with the same volume of HBSS at settled time points (0, 7.5, 15, 30 and 60 min for the model compounds with both models and the PFASs with the hiPSC-derived IEC layers and 0, 15, 30 and 60 min for PFASs with the Caco-2 cell layers). After 60 minutes, all liquid was collected from the apical and basolateral compartment and the cells were lysed in 200 µL RIPA buffer (Thermo Fisher Scientific), and chemicals were quantified in the different compartments (apical, basolateral and cells) in order to calculate the mass balance.
(§4) The apparent permeability coefficient (Papp, cm/s) was calculated using the following equation: […]

The conditions of series [4]: ref Ayehunie et al. (2005); cited from earlier work.
In series [5] the test system is hiPSC-derived IEC layers. The arrangement: method as in Kabeya et al. ([2020]). As to conditions: apical to basolateral, ref Kabeya et al. ([2020]); cited from earlier work.
Series [6] can be described thus: Transport study across hiPSC-derived IEC layers. To be noted: human. On the procedure: For differentiation into IECs, definitive endoderm cells were subsequently differentiated into intestinal stem cells by changing medium into DMEM/F12 containing 2% fetal bovine serum, 1% GlutaMAX (Gibco) and 250 ng/ml FGF2 (R&D Systems). After 4 days, cells were dissociated using Accutase and seeded onto polyester Transwell inserts (0.4 µm, Corning) coated with Growth Factor Reduced Matrigel #356231. Cells were cultured for 7 days in intestinal differentiation medium (DMEM/F-12 containing 2% fetal bovine serum, 1% non-essential amino acids (Gibco), 1 × B27 (Gibco), 1 × N2 (Gibco), 1% penicillin/streptomycin (Gibco) and 2 mM L-glutamine (Gibco)) supplemented with 20 ng/ml EGF (R&D Systems) and 30 µM Forskolin (Sigma). ROCK inhibitor, y-27632 (final concentration 10 µM; Stem Cell Technologies), was added during the initial 24 h after seeding to reduce cell death. The cells were subsequently cultured for 12 days in intestinal differentiation medium supplemented with 20 ng/ml EGF, 30 µM Forskolin, 5 µM 5-aza-2′-deoxycytidine (Sigma), 20 µM PD98059 (Stem Cell Technologies) and 0.5 µM A-83–01 (Sigma). The medium was refreshed every 2–3 days. Barrier integrity was determined by measuring apical to basolateral translocation of Lucifer yellow (see Supplementary Data for a detailed description).
as §2
as §3, with “layers).” for “layers). After 60 minutes, all liquid was collected from the apical and basolateral compartment and the cells were lysed in 200 µL RIPA buffer (Thermo Fisher Scientific), and chemicals were quantified in the different compartments (apical, basolateral and cells) in order to calculate the mass balance.”

Series [7] can be described thus: Transport study across EpiIntestinal microtissues. As to conditions: human. On the procedure:
The human EpiIntestinal small intestinal microtissues, consisting of epithelial cells and an underlying lamina propria containing intestinal fibroblasts, were obtained from MatTek Life Sciences (Ashland, USA). Cell culture inserts (8.8 mm ID) were placed in 12-well plates and cells were maintained in 100 µl maintenance medium (MatTek Life Sciences) in the apical compartment and 5 ml maintenance medium in the basolateral compartment upon arrival. The transport studies were performed 1 day after arrival.
as §2, §3, §4
where A is the surface area (cm^2), dQ is the amount of the compound transported (nmol) over the respective time interval dt (s) and C0 is the initial concentration in the donor compartment (µM).

Series [8] has as its system Caco-2 cell layers. The series is described as follows: Transport study across Caco-2 cell layers. To be noted: Caco-2 model; PFAS mixture 1 µM each; not detected in the basolateral compartment. As for the experimental part:
as §1, §2, §3, §4

Series [9] has as its system hiPSC-derived IEC layers. The series is described as follows: Barrier integrity: apical to basolateral translocation of lucifer yellow. Type of series: in vitro ADME, human. To be noted: terminally differentiated IECs; 500 µg/ml apical, 3 hours; data not shown. As for the experimental part:
The medium was refreshed every 2–3 days.
To determine barrier integrity of the hiPSC-derived IEC layers, apical to basolateral translocation of lucifer yellow was measured. 500 µg/ml Lucifer yellow, in differentiation medium, containing EGF, Forskolin, 5-aza-2′-deoxycytidine, PD98059, A-83-01, was added to the apical compartment (400 µl/insert) and incubated at 37 °C for 3 hours. 50 µl medium was collected from the basolateral compartment at 30 min intervals. The fluorescence intensity was measured at 485 nm excitation and 530 nm emission wavelength using a microplate reader (Synergy HT, BioTek, Winooski, VT).

On to `CCCC(=O)Nc1ccc(OCC(O)CNC(C)C)c(C(C)=O)c1` (centres unmarked) [Acebutolol, acebutolol], for which the “Average Papp A - B” value in series [1] (ref Ayehunie et al. 2018) was 0.4 ×10⁻⁶ cm/s; in series [1] (ref Kabeya et al. 2020), 0.35 ×10⁻⁶ cm/s; in [1] (ref Liang et al. 2000) it was 0.51 ×10⁻⁶ cm/s; in series [1] (ref Yazdanian et al. 1998) it was 0.51 ×10⁻⁶ cm/s. In addition, the “Average Papp A–B” value in [2] was 0.4 ± 0.1^a × 10^–6 cm/s; in series [5], 2.35 ± 0.88 × 10^–6 cm/s. Moreover, the Papp A→B at 60 min, 10 µM was determined as 0.42 ± 0.03 ×10⁻⁶ cm/s in [3] and 1.95 ± 0.02 ×10⁻⁶ cm/s in [6]. Further, the results for the Papp B→A at 60 min, 10 µM in [3] and in series [6] were 3.09 ± 0.07 ×10⁻⁶ cm/s and 7.17 ± 0.27 ×10⁻⁶ cm/s, respectively. In addition, the efflux ratio at 60 min, 10 µM in series [3] was 7.37; in [6] it was 3.67. The “Fa (fraction absorbed in humans)” value in series [4] is 40%.

In the case of `CCOC(=O)[C@H](CCc1ccccc1)N[C@@H](C)C(=O)N1CCC[C@H]1C(=O)O` [Enalapril, enalapril], the “Average Papp A - B” value in series [1] (ref Ayehunie et al. 2018) is 0.2 ×10⁻⁶ cm/s; in series [1] (ref Grès et al. 1998), 0.62 ×10⁻⁶ cm/s; in [1] (ref Kabeya et al. 2020), 0.19 ×10⁻⁶ cm/s; in series [1] (ref Logoyda et al. 2018) it was 1.31 ×10⁻⁶ cm/s. For the same molecule, the “Average Papp A–B” value in [2] is recorded as 0.4 ± 0.2^a × 10^–6 cm/s; in series [5], 1.93 ± 0.46 × 10^–6 cm/s. The Papp A→B at 60 min, 10 µM in [3] turned out to be 0.28 ± 0.04 ×10⁻⁶ cm/s; in series [6], 2.95 ± 0.41 ×10⁻⁶ cm/s. For the same molecule, the figures for the Papp B→A at 60 min, 10 µM in [3] and in [6] were 0.43 ± 0.05 ×10⁻⁶ cm/s and 3.68 ± 0.1 ×10⁻⁶ cm/s, respectively. Moreover, the efflux ratio at 60 min, 10 µM was 1.55 in series [3] and 1.25 in series [6]. The “Fa (fraction absorbed in humans)” value in [4] was 40%.

For the molecule `O=C(O)C(F)(OC(F)(F)C(F)(F)C(F)(F)F)C(F)(F)F` (centres unmarked) [HFPO-DA, hexafluoropropylene oxide dimer acid], in [7], the Papp A→B at 60 min, 1 µM came to 1.16 ± 0.19 ×10⁻⁶ cm/s; the Papp B→A at 60 min, 1 µM is 1.04 ± 0.09 ×10⁻⁶ cm/s; the efflux ratio at 60 min, 1 µM was determined as 0.9. Moreover, the “Transport (in words)” value in series [8] is reported as “no transport”. Besides, the Papp B→A at 60 min, 1 µM in series [3] is 1.23 ± 0.25 ×10⁻⁶ cm/s. In [6], the Papp A→B at 60 min, 1 µM worked out at 3.09 ± 0.09 ×10⁻⁶ cm/s; the Papp B→A at 60 min, 1 µM amounted to 4.49 ± 0.27 ×10⁻⁶ cm/s; the efflux ratio at 60 min, 1 µM stood at 1.45.

On to lucifer yellow, for which, in [9], the “Apical to basolateral transport of lucifer yellow” value is “no quantifiable”.
